# Test results as given in patent publication US12171230B2, “Herbicidal compositions” (Bayer Aktiengesellschaft, priority 2018, dated 2024).
# Several values for one entry are separate records, joined by “and”; a condition that tells them apart may be missing. Equal entries are not always repeated.
# Tests used:
# Assay type in all cases: in vivo
# Phalaris minor [1] = assay: Post-emergence herbicidal action against Phalaris minor
# Abutilon theophrasti [2] = assay: Post-emergence herbicidal action against Abutilon theophrasti; details: 100 g of a.i./ha
# Malva pusilia = assay: Post-emergence herbicidal action against Malva pusilia; details: 42 DAT; 100 g a.i./ha
# Ephilobium hirsutum = assay: Post-emergence herbicidal action against Ephilobium hirsutum; details: 100 g of a.i./ha
# Experimental: (§1) When the observed efficacies exceed the formal sum total of the values of the tests with individual applications, they also exceed the expected value according to Colby, which is calculated using the formula below and is likewise regarded as an indication of synergism (cf. S. R. Colby; in Weeds 15 (1967) p. 20 to 22): E^C=A+B−([…])
# (§2) Here: • A=efficacy of the active compound (A) in % at an application rate of a g a.i./ha; • B=efficacy of the active compound (B) in % at an application rate of b g a.i./ha; • E^C=expected value of the effect of the combination (A)+(B) in % at the combined application rate a+b g a.i./ha.
# Seeds or rhizome pieces of mono- and dicotyledonous weeds are placed in sandy loam in pots, covered with soil and grown in a greenhouse under good growth conditions (temperature, air humidity, water supply). Three weeks after sowing, the test plants were treated at the three-leaf stage with the compositions according to the invention. The compositions according to the invention formulated as spray powders or as emulsion concentrates were sprayed onto the green plant parts in various dosages with an application rate of 300 to 800 l/ha of water (equivalent). After the test plants have been left to stand in the greenhouse under optimal growth conditions for about 3 to 4 weeks, the action of the preparations is scored visually in comparison to untreated controls. […]
# Centaurea cyano = assay: Post-emergence herbicidal action against Centaurea cyano
# Procedure, shortened: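 Greenhouse pot-grown plants sprayed post-emergence at the three-leaf stage, three weeks after sowing, with spray-powder or emulsion-concentrate formulations at various dosages in 300 to 800 l/ha water on green parts.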
# Lolium rigidum [3] = assay: Post-emergence herbicidal action against Lolium rigidum
# Alopecurus myosuroides = assay: Post-emergence herbicidal action against Alopecurus myosuroides
# Bromus sterilis [4] = assay: Post-emergence herbicidal action against Bromus sterilis; details: 14 DAT; 1 g a.i./ha
# Viola tricolor = assay: Post-emergence herbicidal action against Viola tricolor
# Ipomoea ssp. = assay: Post-emergence herbicidal action against Ipomoea ssp.; details: 45 DAT
# [5] = tested on: Lolium rigidum (resistant biotype); assay: Post-emergence herbicidal action against Lolium rigidum (resistant biotype)
# Lolium rigidum [6] = assay: Post-emergence herbicidal action against Lolium rigidum; remark: listed apart in the source
# Phalaris minor [7] = assay: Post-emergence herbicidal action against Phalaris minor; remark: listed apart in the source
# Lysimachia nummularia = assay: Post-emergence herbicidal action against Lysimachia nummularia; details: 45 DAT; 100 g a.i./ha
# Ipomoea hederacea = assay: Post-emergence herbicidal action against Ipomoea hederacea; details: 100 g of a.i./ha
# Experimental: as §1, §2
# Seeds or rhizome pieces of mono- and dicotyledonous weeds are placed in sandy loam in pots, covered with soil and grown in a greenhouse under good growth conditions (temperature, air humidity, water supply). Three weeks after sowing, the test plants were treated at the three-leaf stage with the compositions according to the invention. The compositions according to the invention formulated as spray powders or as emulsion concentrates were sprayed onto the green plant parts in various dosages with an application rate of 300 to 800 l/ha of water (equivalent). After the test plants have been left to stand in the greenhouse under optimal growth conditions for about 3 to 4 weeks, the action of the preparations is scored visually in comparison to untreated controls. The compositions according to the invention also have good post-emergence herbicidal activity against a broad spectrum of economically important gramineous and broadleaf weeds.
# [8] = tested on: Lolium rigidum (resistant biotype); assay: Post-emergence herbicidal action against Lolium rigidum (resistant biotype); remark: listed apart in the source
# Bromus sterilis [9] = assay: Post-emergence herbicidal action against Bromus sterilis
# Veronica hederifolia = assay: Post-emergence herbicidal action against Veronica hederifolia; details: 28 DAT; 1 g a.i./ha
# Bromus sterilis [10] = assay: Post-emergence herbicidal action against Bromus sterilis; details: 1 g of a.i./ha
# Abutilon theophrasti [11] = assay: Post-emergence herbicidal action against Abutilon theophrasti; details: 21 DAT
# Eleusine indica = assay: Post-emergence herbicidal action against Eleusine indica; details: (Z3) post-emergence, g of a.i./ha: 270, 90, 15, 5, 5 + 270, 15 + 90
# Text: The following abbreviations are used in the description and the tables that follow: • g of a.i./ha=grams of active substance (active ingredient) (=100% active compound) per hectare; • The sum total of the effects of the individual applications is reported under E^A; • expected values according to Colby are each reported under E^C.
# The rating period is reported in days after application (DAT).
compound,measurement,setting,value
"C=C[C@]1(C(=O)N[C@H]2CO[C@@H](C(=O)OC)C2)CC(c2cc(F)cc(F)c2)=NO1 (relative stereo) [Compound A3, methyl rel-(2R,4R)-4-[[(5S)-3-(3,5-difluorophenyl)-5-vinyl-4H-isoxazole-5-carbonyl]amino]tetrahydrofuran-2-carboxylate]",Herbicidal action against Phalaris minor,"Phalaris minor [1]; 14 DAT, 1 g of a.i./ha",10%
same,Herbicidal action against Phalaris minor,"Phalaris minor [1]; 14 DAT, 4 g of a.i./ha",90%
same,Herbicidal action against Phalaris minor,"Phalaris minor [1]; 14 DAT, 16 g of a.i./ha",85%
same,Herbicidal action against Phalaris minor,"Phalaris minor [1]; 28 DAT, 1 g of a.i./ha",0%
same,Herbicidal action against Phalaris minor,"Phalaris minor [1]; 28 DAT, 4 g of a.i./ha",70%
same,Herbicidal action against Phalaris minor,"Phalaris minor [1]; 28 DAT, 16 g of a.i./ha",40%
same,Herbicidal action 37 DAT [%] against Abutilon theophrasti,Abutilon theophrasti [2],75%
same,Herbicidal action,Malva pusilia,50%
same,Herbicidal action 43 DAT [%] against Ephilobium hirsutum,Ephilobium hirsutum,77%
same,Herbicidal action 14 DAT against Centaurea cyanus,Centaurea cyano; 1 g of a.i./ha,20%
same,Herbicidal action 28 DAT against Centaurea cyanus,Centaurea cyano; 1 g of a.i./ha,10% and 0%
same,Herbicidal action in [%] 14 DAT against Centaurea cyanus,Centaurea cyano; 1 g of a.i./ha,30%
same,Herbicidal action in [%] 28 DAT against Centaurea cyanus,Centaurea cyano; 1 g of a.i./ha,10%
same,Herbicidal action 14 DAT against Centaurea cyanus,Centaurea cyano; 4 g of a.i./ha,50%
same,Herbicidal action 28 DAT against Centaurea cyanus,Centaurea cyano; 4 g of a.i./ha,20%
same,Herbicidal action in [%] 14 DAT against Centaurea cyanus,Centaurea cyano; 4 g of a.i./ha,50%
same,Herbicidal action in [%] 28 DAT against Centaurea cyanus,Centaurea cyano; 4 g of a.i./ha,50%
same,Herbicidal action against Centaurea cyanus,"Centaurea cyano; 14 DAT, 16 g of a.i./ha",80%
same,Herbicidal action in [%] 14 DAT against Centaurea cyanus,Centaurea cyano; 16 g of a.i./ha,70%
same,Herbicidal action in [%] 28 DAT against Centaurea cyanus,Centaurea cyano; 16 g of a.i./ha,40% and 70%
same,Herbicidal action in [%] 28 DAT against Centaurea cyano,"Centaurea cyano; 16 g of a.i./ha, post-emergence",70%
same,Herbicidal action against Centaurea cyanus,"Centaurea cyano; 28 DAT, 16 g of a.i./ha",40%
same,Herbicidal action 28 DAT against Centaurea cyanus,"Centaurea cyano; (Z61) post-emergence, g of a.i./ha: 1, 270, 90, 1 + 270, 1 + 90",0%
same,Herbicidal action in [%] 14 DAT against Lolium rigidum,Lolium rigidum [3]; 1 g of a.i./ha,35% and 40%
same,Herbicidal action in [%] 28 DAT against Lolium rigidum,Lolium rigidum [3]; 1 g of a.i./ha,15% and 10%
same,Herbicidal action in [%] 14 DAT against Lolium rigidum,Lolium rigidum [3]; 4 g of a.i./ha,85%
same,Herbicidal action in [%] 28 DAT against Lolium rigidum,Lolium rigidum [3]; 4 g of a.i./ha,50% and 70%
same,Herbicidal action in [%] 14 DAT against Alopecurus myosuroides,Alopecurus myosuroides; 1 g of a.i./ha,15% and 30%
same,Herbicidal action in [%] 28 DAT against Alopecurus myosuroides,Alopecurus myosuroides; 1 g of a.i./ha,15% and 10%
same,Herbicidal action in [%] 14 DAT against Alopecurus myosuroides,"Alopecurus myosuroides; 1 g of a.i./ha, second 14 DAT block",35%
same,Herbicidal action in [%] 14 DAT against Alopecurus myosuroides,Alopecurus myosuroides; 4 g of a.i./ha,90% and 75%
same,Herbicidal action in [%] 28 DAT against Alopecurus myosuroides,Alopecurus myosuroides; 4 g of a.i./ha,50% and 60%
same,Herbicidal action in [%] 28 DAT against Alopecurus myosuroides,Alopecurus myosuroides; 16 g of a.i./ha,90%
same,Herbicidal action,Bromus sterilis [4],30%
same,Herbicidal action against Viola tricolor,"Viola tricolor; 14 DAT, 1 g of a.i./ha",50%
same,Herbicidal action against Viola tricolor,"Viola tricolor; 14 DAT, 16 g of a.i./ha",85%
same,Herbicidal action against Viola tricolor,"Viola tricolor; 28 DAT, 1 g of a.i./ha",15%
same,Herbicidal action against Viola tricolor,"Viola tricolor; 28 DAT, 16 g of a.i./ha",20%
same,Herbicidal action,Ipomoea ssp.; 50 g a.i./ha,40%
same,Herbicidal action,Ipomoea ssp.; 100 g a.i./ha,50%
same,Herbicidal action against Lolium rigidum (resistant biotype),"[5]; 14 DAT, 1 g of a.i./ha",15%
same,Herbicidal action against Lolium rigidum (resistant biotype),"[5]; 14 DAT, 4 g of a.i./ha",40%
same,Herbicidal action against Lolium rigidum (resistant biotype),"[5]; 28 DAT, 1 g of a.i./ha",0%
same,Herbicidal action against Lolium rigidum,"Lolium rigidum [6]; 14 DAT, 1 g of a.i./ha",35%
same,Herbicidal action against Lolium rigidum,"Lolium rigidum [6]; 28 DAT, 1 g of a.i./ha",15%
same,Herbicidal action against Lolium rigidum,"Lolium rigidum [6]; 28 DAT, 4 g of a.i./ha",50%
same,Herbicidal action in [%] 14 DAT against Phalaris minor,Phalaris minor [7]; 1 g of a.i./ha,10% and 20%
same,Herbicidal action in [%] 28 DAT against Phalaris minor,Phalaris minor [7]; 1 g of a.i./ha,0% and 10%
same,Herbicidal action in [%] 14 DAT against Phalaris minor,Phalaris minor [7]; 4 g of a.i./ha,90% and 85%
same,Herbicidal action in [%] 28 DAT against Phalaris minor,Phalaris minor [7]; 4 g of a.i./ha,70%
same,Herbicidal action in [%] 14 DAT against Phalaris minor,Phalaris minor [7]; 16 g of a.i./ha,85%
same,Herbicidal action,Lysimachia nummularia,18%
same,Herbicidal action 37 DAT against Ipomoea hederacea,Ipomoea hederacea,8%
same,Herbicidal action 37 DAT [%] against Ipomoea hederacea,Ipomoea hederacea; post-emergence,8%
same,Herbicidal action in [%] 14 DAT against Lolium rigidum (resistant biotype),[8]; 1 g of a.i./ha,15% and 30%
same,Herbicidal action in [%] 28 DAT against Lolium rigidum (resistant biotype),[8]; 1 g of a.i./ha,0%
same,Herbicidal action in [%] 14 DAT against Lolium rigidum (resistant biotype),[8]; 4 g of a.i./ha,40% and 60%
same,Herbicidal action against Bromus sterilis,"Bromus sterilis [9]; 14 DAT, 1 g of a.i./ha",15%
same,Herbicidal action against Bromus sterilis,"Bromus sterilis [9]; 14 DAT, 4 g of a.i./ha",85%
same,Herbicidal action against Bromus sterilis,"Bromus sterilis [9]; 28 DAT, 1 g of a.i./ha",15%
same,Herbicidal action,Veronica hederifolia,30%
same,Herbicidal action in [%] 14 DAT against Bromus sterilis,Bromus sterilis [10],15% and 30%
same,Herbicidal action in [%] 28 DAT against Bromus sterilis,Bromus sterilis [10],15%
O=C(Nc1ccc(F)cc1F)c1cccnc1Oc1cccc(C(F)(F)F)c1 [(B2.18) Diflufenican],Herbicidal action against Abutilon theophrasti,Abutilon theophrasti [11]; 30 g of a.i./ha,10%
same,Herbicidal action against Abutilon theophrasti,Abutilon theophrasti [11]; 90 g of a.i./ha,10%
same,Herbicidal action against Abutilon theophrasti,Abutilon theophrasti [11]; 270 g of a.i./ha,25%
same,Herbicidal action 21 DAT against Eleusine indica,Eleusine indica; 90 g of a.i./ha,20%
same,Herbicidal action 21 DAT against Eleusine indica,Eleusine indica; 270 g of a.i./ha,30%
